Measured values as given in PMC9995496, “A screen for MeCP2-TBL1 interaction inhibitors using a luminescence-based assay” (Scientific Reports, 2023).
Counter-ions that a name gives are not always drawn. Like-named read-outs stand apart in the source and are kept apart here.

Tested on: PRKACA-PRKAR2A interaction (SmBiT-PRKACA / LgBiT-PRKAR2A), protein kinase A
Set-up: NanoLuc complementation counter-screen in cell extract, PRKACA with PRKAR2A, loss of luminescence, detects NanoLuc interference
Details: counter-screen for NanoLuc interference, 0.5 h, 20 µM, inhibitor

| SMILES | Inh (PKA) [%] | Inh (PKA) (Inh (PKA)) [%] |
| --- | --- | --- |
| Cc1ccc(CNc2ncnc3ccc(-c4ccc(CO)o4)cc23)o1 [UM0142550:01, ML167] | 10.94 |  |
| CC(C)[C@H](N)C(=O)N1CCC[C@H]1B(O)O [UM0142552:01, Talabostat mesylate] | -1.148 |  |
| CN1CCN(c2ccc(OC(F)(F)F)c(Nc3ncc4c(n3)-c3c(c(C(N)=O)nn3CCO)CC4)c2)CC1 [UM0142553:01, NMS-1286937] | 23.22 |  |
| Cc1c(F)cc(C(=O)NC2CC2)cc1-c1ccc(C(=O)NCC(C)(C)C)cn1 [UM0142557:01, Losmapimod] | 0.7266 |  |
| Cc1ccc2nc(NCCN)c3ncc(C)n3c2c1 [UM0142559:01, BMS-345541(free base)] | 1.467 |  |
| O=C(NCc1cccc(O)c1)c1cc2cc(F)ccc2[nH]1 [UM0142568:01, KX1-004] | 5.75 |  |
| CN(C)c1cccc(-c2c3c(=O)n(-c4ccccc4Cl)[nH]c3cc(=O)n2C)c1 [UM0142578:01, GKT137831] | 41.79 |  |
| CN(CC(=O)N(Cc1ccc(C2CCCCC2)cc1)c1ccc(C(=O)O)cc1)S(=O)(=O)c1c(F)c(F)c(F)c(F)c1F [UM0142580:01, SH-4-54] | 8.361 |  |
| O=S(=O)(CC1CS1)c1ccc(Oc2ccccc2)cc1 (centres unmarked) [UM0142583:01, SB-3CT] | 17.13 |  |
| CN(C)CCCNC(=O)c1ccc(-c2cc(O)c3ncccc3c2)cc1 [UM0142607:01, ML324] | 3.619 |  |
| N=C1NC(=O)/C(=C/c2ccc(O)cc2)S1 [UM0142634:01, Mirin] | 13.24 |  |
| CC(=O)O/N=C1/C(c2c(O)[nH]c3cc(Br)ccc23)=Nc2ccccc21 [UM0142638:01, BIO-acetoxime] | 40.08 |  |
| O=S(=O)(N=Cc1c(O)ccc2ccccc12)c1cccs1 [UM0142640:01, STF 083010] | 10.66 |  |
| O=C(Nc1cccnc1)c1cc(-c2ccnc(F)c2)ccc1OCc1ccccc1 [UM0142641:01, GSK2578215A] | 10.96 |  |
| Cc1cc(C)c(S(=O)(=O)n2cc(C)cc2C)c(C)c1 [UM0142646:01, HJC 0350] | 24.94 |  |
| N[C@@H](CCNCc1ccc(Cl)cc1)C(=O)N1CCCCC1 [UM0142648:01, UAMC 00039 dihydrochloride] | -0.6597 |  |
| Cn1cc(-c2ccc(F)c(C(F)(F)F)c2)nc1C1CCN(c2ncnc3[nH]ncc23)CC1 [UM0142649:01, LY2584702] | 26.28 |  |
| CS(=O)(=O)c1ccc(-c2nnc(/C=C/c3nnc(-c4ccc(C#N)cc4)o3)n2-c2ccccc2Cl)nc1 [UM0142653:01, G007-LK] | 3.502 |  |
| Cc1cc(C)c(CNC(=O)c2cc(-c3ccc(N4CCN(C)CC4)nc3)cc3c2c(C)cn3C(C)C)c(=O)[nH]1 [UM0142656:01, GSK503] | 4.717 |  |
| C=CC(=O)Nc1cc(Nc2nccc(-c3c[nH]c4ccccc34)n2)c(OC)cc1N(C)CCN(C)C [UM0142657:01, AZ5104] | 4.603 |  |
| CN(C)S(=O)(=O)c1ccc2c(c1)/C(=C/c1cc3c([nH]1)CCCC3)C(=O)N2 [UM0142659:01, SU6656] | 52.64 |  |
| Nc1nc(NC2CC2)cc(-c2cccc(Cl)c2Cl)n1 [UM0142662:01, TH588] | 10.71 |  |
| Cc1cn(-c2cc(NC(=O)c3ccc(C)c(Nc4nccc(-c5cnccn5)n4)c3)cc(C(F)(F)F)c2)cn1 [UM0142663:01, Radotinib(IY-5511)] | 10.62 |  |

| SMILES | Inh (PKA) [%] | Inh (PKA) (Inh (PKA)) [%] |
| --- | --- | --- |
| CNc1cc(-c2cccc(Cl)c2Cl)nc(N)n1 [UM0142665:01, TH287] | 9.555 |  |
| FC(F)(F)Oc1ccc(-c2ccc3nnc(C(F)(F)F)n3c2)cc1 [UM0142666:01, GS967] | 6.579 |  |
| CN1CCN(c2ccc(C(=O)Nc3n[nH]c4ccc(Cc5cc(F)cc(F)c5)cc34)c(NC3CCOCC3)c2)CC1 [UM0142673:01, Entrectinib] | 20.65 |  |
| CNC(=O)c1c(C)oc2cc(Oc3ncnc4cc(OC)c(OC)cc34)ccc12 [UM0142676:01, Fruquintinib(HMPL-013)] | 4.605 |  |
| O=C(Nc1ccc2[nH]nc(-c3ccncc3)c2c1)[C@@H]1CCN(CC(=O)N2CCN(c3ccc(-c4ncccn4)cc3)CC2)C1 [UM0142677:01, SCH772984 HCl] |  | 18.36 |
| Cc1ccc2nc(N)[nH]c(=O)c2c1Sc1ccncc1 [UM0142685:01, Nolatrexed (AG-337)] | 7.912 |  |
| CC#CC(=O)Nc1ccc2ncnc(Nc3cccc(Br)c3)c2c1 [UM0142687:01, CL-387785 (EKI-785)] | 17.86 |  |
| O=C(O)C(=O)c1cn(Cc2ccccc2)c2ccc(-c3ccc(OC(F)(F)F)cc3)cc12 [UM0142688:01, Tiplaxtinin(PAI-039)] | 36.69 |  |
| Nc1ccc(/C=C/C(=O)NCc2cc3cc(-c4ccc(C(=O)N5CCC(F)(F)CC5)cc4)cc(-c4ccc(F)cc4)c3o2)cn1 [UM0142694:01, KPT-9274] | 5.106 |  |
| N#CC(c1ccnc(NCCc2cccnc2)n1)c1nc2ccccc2s1 (centres unmarked) [UM0142696:01, AS601245] | 54.87 |  |
| CN1CCN(c2ccc3nc(-c4c(N)c5c(F)cccc5[nH]c4=O)[nH]c3c2)CC1 [UM0142698:01, Dovitinib (TKI258) Lactate] |  | 21.22 |
| COc1cc2ncnc(Nc3cccc(Cl)c3F)c2cc1OC(=O)N1CCN(C)C[C@H]1C [UM0142700:01, AZD3759] | 7.884 |  |
| CNCC(O)c1ccc(O)cc1 (centres unmarked) [UM0142702:01, Synephrine] | 1.654 |  |
| O=C(Cc1ccccc1)Nc1nnc(CCSCCc2nnc(NC(=O)Cc3ccccc3)s2)s1 [UM0142712:01, BPTES] | 8.754 |  |
| CC(=O)c1cc2c(o1)C(=O)c1ccccc1C2=O [UM0142718:01, Napabucasin] | 2.166 |  |
| Cc1ccc(Nc2ncc3c(n2)N(C)C(=O)N(c2cc(NC(=O)c4cccc(C(F)(F)F)c4)ccc2C)C3)cn1 [UM0142721:01, GNF-7] | 15.96 |  |
| CC(C)Oc1ccc(-c2nc(-c3cccc4c3CC[C@@H]4NCCO)no2)cc1C#N [UM0142722:01, Ozanimod (RPC1063)] | 8.033 |  |
| O=C(NCC(=O)N1CCCC1)Nc1ccc2cnccc2c1 [UM0142726:01, SGC707] | 9.797 |  |
| O=C(Nc1cc(Cl)cc2c1[nH]c1cnccc12)c1cccnc1 [UM0142732:01, PS-1145] | 3.261 |  |
| COC(=O)c1ccc([C@@H]2c3[nH]c4ccccc4c3C[C@@H](C(=O)OC)N2C(=O)CCl)cc1 [UM0142735:01, RSL3] | 22.95 |  |
| Cc1c(Cl)cccc1S(=O)(=O)Nc1nc(CC(=O)N2CCN(C)CC2)cs1 [UM0142740:01, BVT 2733] | 1.989 |  |
| CCOC(=O)COc1ccc(/C=C2\SC(=S)NC2=O)cc1OC [UM0142743:01, IMR-1] | 35.49 |  |
| COc1ccc(/C=C(\C#N)c2cccnc2)cc1OC [UM0142745:01, RG 13022] | 13.99 |  |

| SMILES | Inh (PKA) [%] | Inh (PKA) (Inh (PKA)) [%] |
| --- | --- | --- |
| Cc1cn(CCN2CCN(c3ccccc3-c3cc(C#N)cc(C(=O)NCCCN4CCCC4)c3)CC2)c2ccccc12 [UM0142746:01, LLY507] | 10.14 |  |
| Nc1nccc2c1ncn2[C@@H]1O[C@H](CO)[C@@H](O)[C@H]1O [UM0142748:01, 3-Deazaadenosine] | -15.82 |  |
| Nc1ncc(-c2ccnc(Nc3ccncc3)n2)c(CC2CC2)n1 [UM0142752:01, PIK-III] | 17.17 |  |
| COc1cc(OCc2cccc(-c3ccccc3)c2C)cc(OC)c1CN1CCCC[C@H]1C(=O)O [UM0142755:01, PD-1/PD-L1 inhibitor 1] | 7.667 |  |
| CN1CCc2cc(Nc3ncc(C4CC4)c(NCCCNC(=O)C4CCC4)n3)ccc2C1 [UM0142756:01, MRT68921] | 22 |  |
| O=C(Nc1cnn2ccc(N3CCC[C@@H]3c3cc(F)ccc3F)nc12)N1CC[C@H](O)C1 [UM0142757:01, LOXO-101] | 0.6062 |  |
| CC(C)(C)C(=O)Oc1ccc(S(=O)(=O)Nc2ccccc2C(=O)NCC(=O)O)cc1 [UM0142761:01, Sivelestat (ONO-5046)] | -0.1491 |  |
| Cc1ccc2nc(CN(CCN(Cc3nc4ccc(C)cc4[nH]3)Cc3nc4ccc(C)cc4[nH]3)Cc3nc4ccc(C)cc4[nH]3)[nH]c2c1 [UM0142762:01, NSC348884] | 3.32 |  |
| COc1cc(-c2cn(C)c(=O)c3cnccc23)cc(OC)c1CN(C)C [UM0142765:01, BI-7273] | 0.4975 |  |
| CCCOc1ccc(CCc2nc3cc(-c4c(C)noc4C)ccc3n2CCN2CCOCC2)cc1 [UM0142766:01, PF-CBP1] | 9.037 |  |
| N=C(N)NN [UM0142771:01, Aminoguanidine hydrochloride] | 0.824 |  |
| CC(C)SC(=N)N [UM0142772:01, S-Isopropylisothiourea hydrobromide] | 0.4324 |  |
| CS(=O)(=O)Nc1ccc([N+](=O)[O-])cc1OC1CCCCC1 [UM0142773:01, NS 398] | 50.11 |  |
| CCCOc1ccccc1-c1nc2[nH]nnc2c(=O)[nH]1 [UM0142774:01, Zaprinast] | 3.478 |  |
| CC1=Nc2ccc(Cl)cc2S(=O)(=O)N1 [UM0142775:01, Diazoxide] | -0.314 |  |
| COc1ccc(CCCOC(Cn2ccnc2)c2ccc(OC)cc2)cc1 (centres unmarked) [UM0142776:01, SKF 96365 hydrochloride] | 35.58 |  |
| CC(N)=NCc1cccc(CN)c1 [UM0142778:01, 1400W dihydrochloride] | -1.118 |  |
| CN(C)CCCC1(c2ccc(F)cc2)OCc2cc(C#N)ccc21 (centres unmarked) [UM0142779:01, Citalopram hydrobromide] | 0.9875 |  |
| Nc1ncnc2c1ncn2C1CCCO1 (centres unmarked) [UM0142780:01, SQ 22536] | -2.134 |  |
| O=C1OC2(c3ccccc31)c1ccc(O)c(O)c1Oc1c2ccc(O)c1O [UM0142786:01, Gallein] | 24.58 |  |
| C[C@H](NC(=O)c1sccc1OCc1ccc(Cl)cc1)c1ccccc1 [UM0142788:01, AS 1949490] | 58.85 |  |
| N[C@@H]1C[C@H]1c1ccccc1 [UM0142789:01, Tranylcypromine hydrochloride] | -0.9566 |  |
